# Source: ChEMBL document CHEMBL3407496, “Chalcones and their therapeutic targets for the management of diabetes: structural and pharmacological perspectives” (Eur J Med Chem, 2015)
# Legend:
# [1] = target: Aldo-keto reductase family 1 member B1 (Homo sapiens) (UniProt P15121); assay: Inhibition of aldose reductase (unknown origin) at 10 ug/ml
# [2] = Non-competitive inhibition of alpha-glucosidase (unknown origin); design: species or system Homo sapiens
# [3] = species: Homo sapiens; assay: Inhibition of ALR1 (unknown origin); conditions: concentration not given here
# [4] = target: Aldo-keto reductase family 1 member B1 (Homo sapiens) (UniProt P15121); assay: Inhibition of ALR2 (unknown origin); conditions: concentration not given here
# [5] = target: T1, Tyrosine-protein phosphatase non-receptor type 1 (Homo sapiens, UniProt P18031); assay: Inhibition of PTP1B (unknown origin)
# T1 sequence (P18031 whole entry): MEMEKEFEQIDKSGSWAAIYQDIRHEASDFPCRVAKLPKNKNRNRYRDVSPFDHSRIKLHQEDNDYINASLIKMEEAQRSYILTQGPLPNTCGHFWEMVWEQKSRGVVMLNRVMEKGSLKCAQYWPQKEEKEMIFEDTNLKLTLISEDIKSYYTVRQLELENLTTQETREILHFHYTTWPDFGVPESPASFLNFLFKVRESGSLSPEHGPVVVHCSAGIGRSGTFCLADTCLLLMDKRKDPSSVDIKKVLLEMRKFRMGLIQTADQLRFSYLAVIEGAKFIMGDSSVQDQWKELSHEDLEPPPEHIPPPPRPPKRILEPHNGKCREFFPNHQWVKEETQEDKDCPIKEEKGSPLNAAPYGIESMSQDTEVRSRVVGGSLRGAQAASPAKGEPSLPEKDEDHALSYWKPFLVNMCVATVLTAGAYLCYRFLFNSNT
# [6] = target: T1, Tyrosine-protein phosphatase non-receptor type 1; assay: Competitive inhibition of PTP1B (unknown origin) using p-nitrophenyl phosphate as substrate
# [7] = target: T2, Solute carrier family 2, facilitated glucose transporter member 4 (Rattus norvegicus) (UniProt P19357); assay: Induction of GLUT4 translocation in rat L6 cells assessed as increase in 2-deoxyglucose uptake relative to control; type: cell-based
# T2 sequence (whole entry): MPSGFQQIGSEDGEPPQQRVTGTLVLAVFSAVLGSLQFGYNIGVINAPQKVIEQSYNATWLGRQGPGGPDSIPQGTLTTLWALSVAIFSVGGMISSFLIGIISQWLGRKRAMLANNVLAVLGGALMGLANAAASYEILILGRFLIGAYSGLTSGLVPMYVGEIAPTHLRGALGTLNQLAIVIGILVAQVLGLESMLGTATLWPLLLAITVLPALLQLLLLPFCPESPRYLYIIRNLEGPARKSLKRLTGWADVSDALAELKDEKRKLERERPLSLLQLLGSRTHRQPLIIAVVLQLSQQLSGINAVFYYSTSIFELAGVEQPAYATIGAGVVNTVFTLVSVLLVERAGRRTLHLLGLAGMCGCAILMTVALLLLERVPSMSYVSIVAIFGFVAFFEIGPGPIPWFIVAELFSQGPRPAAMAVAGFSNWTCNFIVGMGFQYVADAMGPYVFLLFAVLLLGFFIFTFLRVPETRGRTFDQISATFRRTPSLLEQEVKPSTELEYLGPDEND
# [8] = tested on: Oryctolagus cuniculus; assay: Reduction of blood glucose in normoglycemic rabbit at 50 mg/kg, po after 4 hrs; type: functional; design: scale not given: the % may be the effect or the level left
smiles,measurement,setting,value
COc1cc(O)c(CC=C(C)C)c(O)c1C(=O)/C(O)=C/c1ccc(O)cc1,inhibition,[1],53.7%
CC1(C)CCc2cc(C(=O)/C=C/c3ccc(O)c(O)c3)c(O)cc2O1,IC50,[2],5.3 µM
COc1cc(O)c(CC=C(C)C)c(O)c1C(=O)/C=C/c1ccc(O)cc1 [XANTHOHUMOL],IC50,[2],8.8 µM
C=C(C)C(CCC(C)(C)O)Cc1c(O)cc(OC)c(C(=O)/C(O)=C/c2ccc(O)cc2O)c1O (stereo unspecified),inhibition,[1],53.7%
O=C(/C=C/c1ccc(Cl)cc1)c1ccc(O)cc1O,inhibition,[3],35%
same,inhibition,[4],35%
CC(/C=C1\SC(=S)N(CC(=O)O)C1=O)=C\c1ccccc1,inhibition,[1],55.6%
CC(C)=CCc1cc(C(=O)/C=C/c2ccc(O)c(O)c2)c(O)cc1O [BROUSSOCHALCONE A],IC50,[2],5.3 µM
same,IC50,[5],21.5 µM
CC1(C)CCc2cc(C(=O)/C=C/c3ccc(O)cc3)c(O)cc2O1,IC50,[2],5.3 µM
O=C(/C=C/c1ccco1)c1ccc(O)cc1O,IC50,[6],2.49 µM
O=C(/C=C/c1ccco1)c1cccc(Cl)c1,IC50,[6],2.9 µM
CC(C)=CCc1cc(C(=O)/C=C/c2ccc(O)cc2)c(O)cc1O [BROUSSOCHALCONE B],IC50,[2],5.3 µM
C=C(C)C(CC=C(C)C)Cc1c(O)cc(OC)c(C(=O)/C(O)=C/c2ccc(O)cc2O)c1O (stereo unspecified),inhibition,[1],53.7%
CC(C)=CCC/C(C)=C/Cc1c(O)ccc(C(=O)/C=C/c2ccc(O)cc2)c1O,Ratio,[7],1.9
COc1ccc(C(=O)/C=C/c2ccc(O)cc2)c(O)c1CC=C(C)C,Ratio,[7],1.9
Cc1ccc(S(=O)(=O)CC(=O)Cc2ccccc2C(=O)/C=C/c2ccc(Cl)cc2Cl)cc1,Activity,[8],38.73%
CSc1ccc(/C=C/C(=O)c2ccc(O)cc2O)cc1,inhibition,[3],35%
same,inhibition,[4],35%
COc1ccc(/C=C/C(=O)c2ccc(OC)cc2O)cc1,inhibition,[3],35%
same,inhibition,[4],35%
